Laboratory results published in PubChem BioAssay (NCI).
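A five-concentration, 48-hour dose response in 96-well plates underlies each endpoint, interpolated linearly between surrounding concentrations. Here, GI50 denotes the concentration required for 50% inhibition of growth. TGI: concentration producing complete growth inhibition.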

Key:
Experiment in all cases: DTP human tumour cell line panel, 48 h
NCI-H460 lung = tested on: NCI-H460 lung
SR leukemia = tested on: SR leukemia
SF-539 CNS = tested on: SF-539 CNS
M14 melanoma = tested on: M14 melanoma
SK-MEL-2 melanoma = tested on: SK-MEL-2 melanoma
OVCAR-3 ovarian = tested on: OVCAR-3 ovarian
A498 renal = tested on: A498 renal
RXF 393 renal = tested on: RXF 393 renal
HL-60(TB) leukemia = tested on: HL-60(TB) leukemia
SK-OV-3 ovarian = tested on: SK-OV-3 ovarian
HCC-2998 colon = tested on: HCC-2998 colon
786-0 renal = tested on: 786-0 renal
HOP-62 NSCLC = tested on: HOP-62 NSCLC
NCI-H226 lung = tested on: NCI-H226 lung
COLO 205 colon = tested on: COLO 205 colon
RPMI-8226 leukemia = tested on: RPMI-8226 leukemia
KM12 colon = tested on: KM12 colon
SNB-19 CNS = tested on: SNB-19 CNS
CAKI-1 renal = tested on: CAKI-1 renal
T-47D breast = tested on: T-47D breast
HCT-116 colon = tested on: HCT-116 colon
HOP-92 NSCLC = tested on: HOP-92 NSCLC
MOLT-4 leukemia = tested on: MOLT-4 leukemia
TK-10 renal = tested on: TK-10 renal
UO-31 renal = tested on: UO-31 renal
SF-295 CNS = tested on: SF-295 CNS
BT-549 breast = tested on: BT-549 breast
SF-268 CNS = tested on: SF-268 CNS
U251 CNS = tested on: U251 CNS

**Q.** For `Nc1ncc(-c2ccc3ncnc(N4CCc5cc(F)c(Cl)cc54)c3c2)cc1CO`, which GI50 (NCI-H460 lung) is on record?
**A.** The GI50 was 413 nM.

**Q.** And the TGI (NCI-H460 lung)?
**A.** Its TGI is 3560 nM.

**Q.** And the GI50 (SR leukemia)?
**A.** Its GI50 is 475 nM.

**Q.** What about the TGI (SR leukemia) of the same molecule?
**A.** The TGI was 4660 nM.

**Q.** What about the GI50 (SF-539 CNS) of the same molecule?
**A.** Its GI50 is 1270 nM.

**Q.** What about the TGI (SF-539 CNS) of the same molecule?
**A.** The TGI was 4450 nM.

**Q.** And the GI50 (M14 melanoma)?
**A.** The GI50 was 543 nM.

**Q.** What about the TGI (M14 melanoma) of the same molecule?
**A.** Its TGI is 3900 nM.

**Q.** And the GI50 (SK-MEL-2 melanoma)?
**A.** Its GI50 is 1090 nM.

**Q.** What about the TGI (SK-MEL-2 melanoma) of the same molecule?
**A.** Its TGI is 2890 nM.

**Q.** And the GI50 (OVCAR-3 ovarian)?
**A.** Its GI50 is 468 nM.

**Q.** And the TGI (OVCAR-3 ovarian)?
**A.** The TGI was 4840 nM.

**Q.** What about the GI50 (A498 renal) of the same molecule?
**A.** Its GI50 is 110 nM.

**Q.** And the TGI (A498 renal)?
**A.** The TGI was 611 nM.

**Q.** And the GI50 (RXF 393 renal)?
**A.** Its GI50 is 318 nM.

**Q.** What about the TGI (RXF 393 renal) of the same molecule?
**A.** The TGI was 1170 nM.

**Q.** And the GI50 (HL-60(TB) leukemia)?
**A.** The GI50 was 1070 nM.

**Q.** And the TGI (HL-60(TB) leukemia)?
**A.** Its TGI is 4500 nM.

**Q.** And the GI50 (SK-OV-3 ovarian)?
**A.** The GI50 was 451 nM.

**Q.** What about the TGI (SK-OV-3 ovarian) of the same molecule?
**A.** The TGI was 2820 nM.

**Q.** And the GI50 (HCC-2998 colon)?
**A.** Its GI50 is 1200 nM.

**Q.** What about the TGI (HCC-2998 colon) of the same molecule?
**A.** Its TGI is 5120 nM.

**Q.** What about the GI50 (786-0 renal) of the same molecule?
**A.** The GI50 was 474 nM.

**Q.** And the TGI (786-0 renal)?
**A.** Its TGI is 5000 nM.

**Q.** What about the GI50 (HOP-62 NSCLC) of the same molecule?
**A.** Its GI50 is 776 nM.

**Q.** And the TGI (HOP-62 NSCLC)?
**A.** The TGI was 5120 nM.

**Q.** What about the GI50 (NCI-H226 lung) of the same molecule?
**A.** The GI50 was 570 nM.

**Q.** And the TGI (NCI-H226 lung)?
**A.** Its TGI is 9140 nM.

**Q.** What about the GI50 (COLO 205 colon) of the same molecule?
**A.** Its GI50 is 1170 nM.

**Q.** What about the TGI (COLO 205 colon) of the same molecule?
**A.** The TGI was 2820 nM.

**Q.** And the GI50 (RPMI-8226 leukemia)?
**A.** Its GI50 is 395 nM.

**Q.** And the TGI (RPMI-8226 leukemia)?
**A.** Its TGI is 3720 nM.

**Q.** What about the GI50 (KM12 colon) of the same molecule?
**A.** The GI50 was 1650 nM.

**Q.** What about the TGI (KM12 colon) of the same molecule?
**A.** The TGI was 8230 nM.

**Q.** What about the GI50 (SNB-19 CNS) of the same molecule?
**A.** Its GI50 is 1430 nM.

**Q.** And the TGI (SNB-19 CNS)?
**A.** The TGI was 12900 nM.

**Q.** What about the GI50 (CAKI-1 renal) of the same molecule?
**A.** Its GI50 is 282 nM.

**Q.** And the TGI (CAKI-1 renal)?
**A.** The TGI was 3760 nM.

**Q.** And the GI50 (T-47D breast)?
**A.** Its GI50 is 169 nM.

**Q.** And the TGI (T-47D breast)?
**A.** Its TGI is 936 nM.

**Q.** And the GI50 (HCT-116 colon)?
**A.** The GI50 was 1260 nM.

**Q.** And the TGI (HCT-116 colon)?
**A.** Its TGI is 5020 nM.

**Q.** And the GI50 (HOP-92 NSCLC)?
**A.** Its GI50 is 115 nM.

**Q.** What about the TGI (HOP-92 NSCLC) of the same molecule?
**A.** The TGI was 1530 nM.

**Q.** And the GI50 (MOLT-4 leukemia)?
**A.** Its GI50 is 525 nM.

**Q.** And the TGI (MOLT-4 leukemia)?
**A.** Its TGI is 4720 nM.

**Q.** What about the GI50 (TK-10 renal) of the same molecule?
**A.** Its GI50 is 231 nM.

**Q.** What about the TGI (TK-10 renal) of the same molecule?
**A.** The TGI was 2030 nM.

**Q.** And the GI50 (UO-31 renal)?
**A.** The GI50 was 154 nM.

**Q.** And the TGI (UO-31 renal)?
**A.** The TGI was 5000 nM.

**Q.** What about the GI50 (SF-295 CNS) of the same molecule?
**A.** The GI50 was 453 nM.

**Q.** What about the TGI (SF-295 CNS) of the same molecule?
**A.** The TGI was 3170 nM.

**Q.** What about the GI50 (BT-549 breast) of the same molecule?
**A.** Its GI50 is 321 nM.

**Q.** What about the TGI (BT-549 breast) of the same molecule?
**A.** The TGI was 2050 nM.

**Q.** What about the GI50 (SF-268 CNS) of the same molecule?
**A.** The GI50 was 663 nM.

**Q.** What about the TGI (SF-268 CNS) of the same molecule?
**A.** The TGI was 7890 nM.

**Q.** What about the GI50 (U251 CNS) of the same molecule?
**A.** The GI50 was 1430 nM.

**Q.** And the TGI (U251 CNS)?
**A.** The TGI was 7950 nM.
